From patent publication US6855729B2, “Treatment of fibromyalgia and related fatigue syndromes using antagonists or partial agonists of 5HT1a receptors” (priority 2001, dated 2005)

Experiments:
[1] = tested on: patients with fibromyalgia; assay: Open label treatment study in fibromyalgia / chronic fatigue syndrome; assay type: in vivo, human; conditions: 2.5 mg three times daily
Procedure: Five patients with fibromyalgia (ACR criteria) who also met criteria for chronic fatigue syndrome (CDC criteria) gave informed consent to take part in this open label treatment study. All were treated with pindolol 2.5 mg three times daily.

5HT1a receptor = target: T1, 5HT1a receptor (Homo sapiens, UniProt P08908); assay: Buspirone challenge, prolactin release; assay type: in vivo; conditions: buspirone 30 mg orally; for Prolactin AUC (mean±SD): blood 0-180 min
T1 construct: Buspirone (30 mg) or matching placebo was administered orally at 0900 h (Time 0); from tissue; host or cells: living human subjects (central receptors)
T1 sequence (P08908 1-422): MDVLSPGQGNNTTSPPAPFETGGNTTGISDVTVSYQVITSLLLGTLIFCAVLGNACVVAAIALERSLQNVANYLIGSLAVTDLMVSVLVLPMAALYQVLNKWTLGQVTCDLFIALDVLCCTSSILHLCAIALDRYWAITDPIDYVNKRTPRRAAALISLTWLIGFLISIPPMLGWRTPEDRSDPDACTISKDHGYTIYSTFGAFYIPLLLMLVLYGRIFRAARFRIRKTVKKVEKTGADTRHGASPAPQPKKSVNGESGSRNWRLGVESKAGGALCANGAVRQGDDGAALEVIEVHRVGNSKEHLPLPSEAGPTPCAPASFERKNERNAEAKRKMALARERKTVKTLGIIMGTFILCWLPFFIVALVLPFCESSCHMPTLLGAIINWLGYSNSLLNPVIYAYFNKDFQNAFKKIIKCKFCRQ
Procedure: A total of 12 subjects (9 female/3 male) and 12 healthy comparison subjects (9 female/3 male) gave fully informed consent to take part in the study. […] All patients fulfilled criteria for both fibromyalgia (ACR criteria) and chronic fatigue syndrome (CDC criteria). […] Buspirone (30 mg) or matching placebo was administered orally at 0900 h (Time 0). Blood was taken at 0, 30, 60, 90, 120 and 180 min.

SMILES	Time to significant improvement in symptoms ([1]; from commencing treatment)	Effect on symptoms, energy levels and general wellbeing ([1]; open label)	Patients showing a significant improvement in symptoms ([1]; open label, five patients with fibromyalgia and chronic fatigue syndrome)	Prolactin levels after challenge (5HT1a receptor; all subjects (patients and healthy))	Prolactin AUC (mean±SD) (5HT1a receptor; healthy subjects)	Prolactin AUC (mean±SD) (5HT1a receptor; patients with fibromyalgia and chronic fatigue syndrome)
CC(C)NCC(O)COc1cccc2[nH]ccc12 (racemic) [pindolol]	≤ 10 days	reduction in all symptoms and an increase in energy levels and general wellbeing	Four of 5			
O=C1CC2(CCCC2)CC(=O)N1CCCCN1CCN(c2ncccn2)CC1 [Buspirone]				rose in all subjects	27±35	49±28
